One series addresses T1, AnsR (Corynebacterium glutamicum, UniProt A0AB72VEC9).
T1 construct: gene cgR_2807; His-tagged (pColdI, plasmid pCRC667), E. coli BL21(DE3), Ni-NTA; annotated start codon is wrong, true start is the ATG 12 nt downstream
T1 sequence (A0AB72VEC9 5-238 limits assumed): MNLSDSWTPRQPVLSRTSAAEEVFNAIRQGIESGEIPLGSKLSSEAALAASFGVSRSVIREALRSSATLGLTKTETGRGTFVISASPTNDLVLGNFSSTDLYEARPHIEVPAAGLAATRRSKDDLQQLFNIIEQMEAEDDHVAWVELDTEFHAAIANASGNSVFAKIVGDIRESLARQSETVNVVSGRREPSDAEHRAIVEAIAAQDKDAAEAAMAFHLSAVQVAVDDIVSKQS
As to the kind of experiment: EMSA, release of promoter DNA from His-tagged AnsR. The conditions noted are these: effector abolishing operator DNA binding; […] L-Asn preincubated […] min; pH […]; room temperature.

The subject of series [1] is T2, AnsR (Corynebacterium glutamicum R (JCM 18229)), ORF:3b2fc73c.
T2 sequence: T1 sequence (A0AB72VEC9 5-238 limits assumed)
Nature of the series: EMSA. The following applies: 20 mM Tris-HCl pH 8.0, 100 mM NaCl, 3 mM MgCl2, 5 mM CaCl2, 0.1 mM EDTA, 0.1 mM DTT, 10% glycerol, 0.15 mg/mL BSA, room temperature, 25 min; 5% PAGE in 0.5x ….

`NC(=O)C[C@H](N)C(=O)O` [L-Asn]: the “EMSA, release of promoter DNA from His-tagged AnsR” value on AnsR is “L-Asn inhibited the binding of AnsR to the site”.
For the compound “GTTCATGGTGAACATCATGCATTGTGATGCACCTTACGTCAAGGACTTCTTGTTAAGTGATTCTCTTTGTGCAGGTTATGGCAATAAAAAGAACCTGCCCCGAAAAGGGAACAGGCTCTTTTTTCGGTAAGGGTTAAGCCAATGAAGCAAGTCCGAACATTGCGTAAGCCATGATGAAACCAACGATGGCAATACAGGTCTGGTTCACGGTCCAG (double strand) [probe -209 to +6]”, in series [1], the binding entry is on record as “no binding”.
